In US4223034A, “Aniline derivatives” (Beecham Group Limited, priority 1977, dated 1980):
Read-outs that look alike come from different tables or passages of the source.

Legend:
[1] = system: amphetamine induced stereotypy; assay: amphetamine stereotype test (antagonism of amphetamine induced stereotypy); assay type: in vivo, rats; details: for ED50: Rattus norvegicus, sc
anti-catepressan test = assay type: in vivo; details: per oral
Procedure: (§1) a. […] On the anti-catepressan test [based on Costal et al, Europ. […] The LD50 of the compound of Example 3 is about 500 mg/kg per oral in the mouse.

in vivo [2] = details: mouse, po
Procedure: as §1

in vivo [3] = details: sc
[4] = S.C., Table 1, read-out: ED50, antagonism of amphetamine induced stereotypy

Compound	ED50 [1, 4]	ED50 ([1]; rats, administered sub-cutaneously, read-out: ED50, amphetamine stereotype test)	anti-psychotic or neuroleptic activity (in words) ([1]; as judged by amphetamine induced stereotypy test)	ED50 (anti-catepressan test)	LD50 (in vivo [2])	propensity to induce catalepsy relative to anti-stereotypy activity (in words) (catalepsy; in vivo)	Ratio catalepsy / anti-sterotypy (catalepsy; in vivo, sc)	ED50 (in vivo [3])	Ratio catalepsy / anti-sterotypy (catalepsy; ratio of ED50 values S.C., Table 1)
COc1cc(N)c(Cl)cc1NC(=O)C1CCN(Cc2ccccc2)CC1 [Example 3, 5-Amino-4-chloro-2-(1^1-benzylpiperidine-4-carboxamido)-anisole]	0.2 mg/kg	0.2 mg/kg	have anti-psychotic or neuroleptic activity	5 mg/kg	~500 mg/kg	weaker propensity to induce catalepsy	30	6 mg/kg	–
O=C(CCCN1CCC(O)(c2ccc(Cl)cc2)CC1)c1ccc(F)cc1 [Haloperidol, reference compound]	0.05 mg/kg	–	–	–	–	–	–	0.3 mg/kg	–
CN(C)CCCN1c2ccccc2Sc2ccc(Cl)cc21 [Chlorpromazine, reference compound]	1 mg/kg	–	–	–	–	–	–	3 mg/kg	3
